Patent US20140017790A1, “CONTROL AGENT FOR CONTROLLING UNDIFFERENTIATED STATE AND USE THEREOF” (RIKEN, priority 2011, published 2014)

Columns and labels:
Format in all cases: cell-based
human iPS cells [1] = experiment: culture of human iPS cells in feeder free media, EB plating, cell adhesion; settings: LIF not added, CCL2 500 ng/ml alone or bFGF 5 ng/ml alone
Source text: As undifferentiated cells, the same human iPS cells as used in Example 7 were used. As CCL2, the mouse recombinant CCL2 used in the item (1) of Example 2 was used. As feeder free media, the following three kinds of media were provided by adding or not adding the CCL2, LIF and bFGF to the medium for human stem cells used in Example 8. Specifically, the media used were as follows: the medium with CCL2 not added (−)/LIF not added (−)/bFGF added (+); the medium with CCL2 added (+)/LIF not added (−)/bFGF not added (−); and the medium with CCL2 added (+)/LIF added (+)/bFGF not added (−). In each medium, the concentration of the LIF was set to 50 units/ml, the concentration of the CCL2 was set to 500 ng/ml, and the concentration of the bFGF was set to 5 ng/ml. Then, the human iPS cells were cultured for 6 days using each medium, and EBs were produced. Thereafter, the thus-produced EBs were seeded in gelatin coated dishes so that each gelatin coated dish contained one EB, and cultured for 5 days in a medium (DMEM) containing 20% FBS.
The photographs in FIG. 20 show the cell morphologies of the EBs on the 5th day from the plating.

human iPS cells [2] = experiment: phase-contrast morphology of human iPS cells with JAK or PI3K inhibitor; settings: 6 days
Procedure: As a JAK inhibitor, a JAK inhibitor I (Merck) was used. As PI3K inhibitor, the same LY294002 as used in Example 4 was used. Human iPS cells were cultured for 6 days under feeder conditions in the same manner as in the above item (1), except that not only the CCL2 but also the JAK inhibitor or the PI3K inhibitor further was added to the medium. In the medium, the concentration of the Jak inhibitor was set to 10 ng/ml, and the concentration of the PI3K inhibitor was set to 5 ng/ml.
Furthermore, as a control, the cells were cultured in the same manner as in the above using the following media, respectively: a medium containing bFGF instead of the CCL2 and containing DMSO (5 ng/ml) instead of the inhibitor; and a medium containing bFGF (5 ng/ml) instead of the CCL2 and containing the inhibitor.
The phase-contrast micrographs show the results obtained under the conditions of, from the above: the inhibitor not added (DMSO added); the JAK inhibitor added; and the PI3K inhibitor added.

human iPS cells [3] = experiment: differentiation of EBs to myocardial cells, morphology and Tropomyosin immunostaining; settings: 10th day from the plating; CCL2(+)/LIF(+) or CCL2(-)/bFGF(+) 5 ng/ml
Source text: It has been reported that, in general, according to the spontaneous differentiation-inducing method used in the above item (1), differentiation into myocardial cells is more liable to occur. Thus, regarding the cells on the 10th day from the plating in the above item (1), differentiation into myocardial cells was examined.
The morphology of the cells was examined with a microscope. Furthermore, they were immunostained with a Tropomyosin, which is a marker for myocardial cells. Also, culture of the cells, observation of the morphology, and staining were carried out in the same manner as in the above using a medium to which bFGF (5 ng/ml) has been added instead of the CCL2 and LIF.
The photographs in FIG. 19 show the morphologies of the cells on the 10th day from the plating of EB. […] Furthermore, in FIGS. 19A and 19B, the photographs on the left show the cell morphologies, and the photographs on the right show the stained cells. In the black and white photographs of FIG. 19, the stained portions are seen as light gray.

human iPS cells [4] = experiment: EB formation and spontaneous differentiation, cell morphology; settings: third day from the plating; iPS cells precultured 6 days with the substance
Procedure: Human iPS cells were cultured for 6 days under feeder conditions in the same manner as in Example 7. Thereafter, embryonic bodies (EBs) were produced. EB formation is known as a spontaneous differentiation-inducing method for inducing the differentiation of iPS cells. Specifically, first, a ROCK inhibitor (Y-27632, WAKO) was added to the culture solution being used for the culture of the human iPS cells so that the concentration thereof was […], and the human iPS cells were cultured for 1 hour under the conditions of 37° C. and 5% CO2. Then, the feeder cells used for the culture were dissociated with a human ES/iPS cell dissociation solution (CTK solution), and the human iPS cells were collected. Then, 1×10^6 of the human iPS cells were seeded in an ultra-low adhesion culture vessel, and cultured for 6 days in an EB preparation medium (DMEM/F12, Knockout SR, L-glutamine, NEAA (non-essential amino acid (GIBCO)), 2-ME, Pen/Strep). The medium was replaced every two days.
Next, spontaneous differentiation was induced. Specifically, the produced EBs were seeded in gelatin coated dishes so that each gelatin coated dish contained one EB. Each EB was cultured for 14 days in a medium (DMEM) containing 20% FBS, and then observed with a microscope. The medium was replaced every two days. The photographs in FIG. 18 show the cell morphology on the third day from the plating.

human iPS cells [5] = experiment: quantitative RT-PCR of undifferentiated marker genes in human iPS cells under feeder conditions; settings: CCL2 500 ng/ml, 6 days, relative to bFGF 5 ng/ml
Procedure: (§1) A PrimeScript RT-PCR Kit (trade name, TAKARA BIO INC.), an ABI 7500 Fast real time PCR system (trade name, Applied BioSystems), and a SYBR (registered trademark) Premix Ex Taq (trade name, TAKARA BIO INC.) were used in accordance with their protocols. PCR was carried out by conducting 40 cycles of treatment with a treatment at 94° C. for 5 second and at 62.5° C. for 20 seconds as 1 cycle. The expression level of each gene was calculated by normalizing the relative amount of mRNA in the gene to Gapdh mRNA according to the 2^−ΔΔ^CT method (Thomse R, Solvsten C A, Linnet T E, et al., Analysis of qPCR data by converting exponentially related Ct values into linearly related XO values. J Bioinform Comput Biol 2010: 8: 885-900.).
The human iPS cells were used as undifferentiated cells, and human recombinant CCL2 (137-13011, WAKO, SEQ ID NO: 1) was used as the CCL2. The medium used was a medium for human stem cells (trade name “Primate ES medium”, ReproCELL Incorporated). To this medium, LIF was not added, and the CCL2 was added. The concentration of the CCL2 in the medium was set to 500 ng/ml. Under the above-described feeder conditions, the human iPS cells were cultured on the feeder cells SNL76/7 that produce LIF in the above-described medium. Then, 6 days after the start of the culture, the feeder cells were removed, and total RNAs were collected from the cultured human iPS cells. The undifferentiated marker genes were then subjected to the quantitative RT-PCR.
Also, as a negative control, the human iPS cells were cultured under the feeder conditions and the undifferentiated marker genes were subjected to quantitative RT-PCR in the same manner as in the above, except that bFGF (derived from human, WAKO) was added instead of the CCL2 so that the concentration thereof was 5 ng/ml. Thereafter, assuming that the expression level in the comparative example was 1, the relative value with respect to this value was calculated as the fold change in expression level.

mouse iPS cells = experiment: siRNA knockdown and quantitative RT-PCR in mouse iPS cells
Procedure: as §1, with “885-900.). […]” for “885-900.).”
The Stealth siRNA was added so that the final concentration thereof per well was […]. Then, 24 hours after the transfection, total RNAs were extracted, and the expression levels of the undifferentiated marker genes and the Ccl2 gene in the mouse iPS cells were determined by the quantitative RT-PCR.
Also, as a negative control, the mouse iPS cells were subjected to transfection in the same manner as in the above, except that Stealth siRNA (trade name: Stealth RNAi (registered trademark) Negative Control Medium GC, Duplex-catalog number 12935-300, Invitrogen) was used, and the expressions of the undifferentiated marker genes were measured (n=3). […]

With “bFGF: bFGF (derived from human, WAKO), added instead of the CCL2 as negative control” the cell adhesion (human iPS cells [1]) was “not observed”, the “undifferentiation potency, cell morphology” value (human iPS cells [2]; inhibitor not added (DMSO added), bFGF(+)/CCL2(-) or bFGF(-)/CCL2(+)) was “most of the cells maintained the undifferentiation potency, but some of the cells were differentiated” and the “cell morphology of EBs, differentiation into myocardial cells” value (human iPS cells [3]) was “most of them were epithelial cell-like cells”. The “staining with Tropomyosin (marker for myocardial cells)” value (human iPS cells [3]) was “not stained” and the “morphology of EB after spontaneous differentiation-inducing culture” value (human iPS cells [4]) was “epithelial cell-like morphology”.

With “human recombinant CCL2: human recombinant CCL2 (137-13011, WAKO, SEQ ID NO: 1)” the “expression of the KLF4 gene, fold change” value (human iPS cells [5]) was “about two-fold”, the “expression of the Nanog gene, fold change” value (human iPS cells [5]) was “about two-fold” and the “expression of the REX1 gene, fold change” value (human iPS cells [5]) was “about two-fold”. For the same molecule, the “expression of the STELLA gene, fold change” value (human iPS cells [5]) was “about two-fold”.

With “siRNA against the Ccl2 gene: Stealth siRNA (Invitrogen), sequence SEQ ID NO: 7 CAUUCACCAGCAAGAUGAUCCCAAU (commercial Stealth siRNA, chemistry not given here)” the “expressions of the undifferentiated marker genes (Klf4, Tbx3) after knockdown of the Ccl2 gene” value (mouse iPS cells; 24 hours after transfection, relative to negative control siRNA) was “decreased markedly”.

`CC(C)(C)c1nc2c3cc[nH]c(=O)c3c3cc(F)ccc3c2[nH]1` [Jak inhibitor, reference compound] was tested, and the “undifferentiation potency, cell morphology” value (human iPS cells [2]; Jak inhibitor 10 ng/ml, both bFGF(+)/CCL2(-) and bFGF(-)/CCL2(+)) was “all the cells had been differentiated and many dead cells were observed”.

In the case of “siRNA against the Klf4 gene: Stealth siRNA (Invitrogen), sequence SEQ ID NO: 8 CAAGUUUGUGCUGAAGGCGUCUCUG (commercial Stealth siRNA, chemistry not given here)”, the “expression of the Tbx3 gene after knockdown of the Klf4 gene” value (mouse iPS cells; 24 hours, relative to negative control) is reported as “decreased markedly”.
